Measurements taken from patent US4170647A, “Method for the control of Arizona hinshawii in poultry with an alkylated BM123γ-type antibiotic” (American Cyanamid Company, priority 1978, dated 1979).

Test system: Arizona hinshawii
Test: In vitro activity against six strains of Arizona hinshawii (minimum inhibitory concentration, broth dilution)
Type: cell-based
Conditions: trypticase soy broth, 24 hours at 37° C.
Method: Serial, two-fold dilutions of drugs are prepared in trypticase soy broth (TSB). To each tube containing 5 ml of broth is added 0.1 ml of a 10^-3 dilution of bacterial inoculum (six strains of Arizona hinshawii, originally isolated from clinical cases of Arizonosis of turkeys), adjusted prior to dilution to 44% transmission at 645 mμ. An inoculated broth, containing no drug is included as growth control for each strain tested. The minimum inhibitory conentration (MIC) is read as the highest dilution of drug showing no visble growth after 24 hours incubation at 37° C.

Measured: Minimum Inhibitory Concentration

Gentamicin
2 µg/mL: Isolate Number 1 | Isolate Number 2 | Isolate Number 3 | Isolate Number 4 | Isolate Number 5 | Isolate Number 6
